From patent US20250313539A1, “Alpha, Beta-UNSATURATED AMIDE COMPOUND, AND PREPARATION METHOD THEREFOR, AND PHARMACEUTICAL COMPOSITION AND USE THEREOF” (SHANGHAI INSTITUTE OF MATERIA MEDICA, CHINESE ACADEMY OF …, priority 2022, published 2025) come the findings set out here.

Where “and” joins values, the source holds several entries; their conditions need not be identical. Equal entries are not always repeated. Where two headings read alike, the source gives them in different places.

Data set [1] relates to cerebral blood flow in mice. Kind of data set: laser speckle test blood flow model, improvement of cerebral blood flow in mice. In kind it is in vivo. The conditions noted are these: injected intraperitoneally, within 60 minutes after administration vs before; for change in vivo at 20 mg/kg: dose of 20 mg/kg. The source says:
We used a laser speckle test blood flow model to test the activity of compounds in improving cerebral blood flow in mice. The principle is to measure the intensity changes of flowing blood through laser speckle technology, reflecting real-time cerebral blood flow; By comparing the changes in blood flow before and after administration in mice, the effect of compounds on improving blood flow can be detected.
The experimental mice were anesthetized for 30 seconds and fixed on a rack. After waiting for 2 minutes for the baseline light intensity data to stabilize, the brain blood flow light intensity data of the mice were recorded for 10 minutes without administration. Subsequently, the test compound was injected intraperitoneally and the cerebral blood flow and light intensity data of mice were recorded within 60 minutes after administration. Comparing the changes in light intensity before and after administration can reveal the degree of changes in cerebral blood flow in mice.
Through the laser speckle model mentioned above, we conducted preliminary tests on the activity of the compound in improving cerebral blood flow in mice. In this experiment, ferulic acid (FA) was used as a positive control. Multiple compounds have shown significant improvement effects on cerebral blood flow in this model. At a dose of 5 mg/kg, compound 9 can increase cerebral blood flow in mice by about 10%, and compound 16 can increase it by about 20%. At a dose of 20 mg/kg, compounds 30 and 59 increased mouse cerebral blood flow by about 10%, compounds 5, 6, 26, 28, 29, 35, 43, and 58 all increased mouse cerebral blood flow by about 20%, compounds 16, 57, and 86 increased mouse cerebral blood flow by about 30%, compounds 27, 84, and 104 increased it by about 40%, and compound 83 increased mouse cerebral blood flow by 50% to 60%. Overall, the patented compound has good development prospects.

Data set [2] in a line: pharmacokinetic parameters in mice (plasma, LC-MS/MS). In kind it is in vivo, Male ICR (CD-1) mice. The following applies: male, ICR (CD-1), mouse; for MRT inf: read-out: MRT0-∞; for bioavailability: read-out: F (oral bioavailability). How it is done: Male ICR (CD-1) mice were divided into two groups, with three mice in each group. […] intravenously injected with 5 mg/kg of the test substance, blood was collected before administration, and 0.25 h, 0.5 h, 1 h, 2 h, 4 h, 8 h, and 24 hours after administration, respectively, and centrifuged immediately to obtain plasma, and the drug concentration in the plasma was determined using liquid chromatography tandem mass spectrometry.

Data set [3] in a line: drug concentration in brain tissue, plasma and CSF after oral administration in mice. The format is in vivo. The source says: Compound 27 has good brain tissue drug distribution after oral administration in mice, with a B/P of approximately 0.7.
Where [4] appears, read: Mus musculus, ip, 1 h, read-out: increase of cerebral blood flow in mice.
Where [5] appears, read: PO 20 mg/kg, 15 min, individual animals 13-15.
[6] abbreviates: PO 20 mg/kg, 30 min, individual animals 16-18.

For `COc1cccc(/C=C/C(=O)N2CCOC2=O)c1` [Example 5, (E)-3-(3-(3-methoxyphenyl)acryloyl)oxazolidin-2-one], in data set [1] (setting [4]), the change in vivo at 20 mg/kg was around 20%.

Consider `COc1ccc(/C=C/C(=O)N2CCOC2=O)cc1` [Example 6, (E)-3-(3-(4-methoxyphenyl)acryloyl)oxazolidin-2-one], for which the change in vivo at 20 mg/kg in data set [1] (setting [4]) was around 20%.

Turning to `O=C(/C=C/c1ccc(C(F)(F)F)cc1)N1CCOC1=O` [Example 9], the “increase of cerebral blood flow in mice” value in data set [1] (dose of 5 mg/kg) is reported as “about 10%”.

On to `O=C(/C=C/c1cccc(Oc2ccccc2)c1)N1CCOC1=O` [Example 16, (E)-3-(3-(3-phenoxyphenyl)acryloyl)oxazolidin-2-one], for which, in data set [1] (Mus musculus, ip, 1 h, dose of 5 mg/kg, read-out: increase of cerebral blood flow in mice), the change in vivo at 5 mg/kg was around 20%. For the same compound, the change in vivo at 20 mg/kg in data set [1] (setting [4]) was around 30%.

`O=C(/C=C/c1ccccc1C(F)(F)F)N1C(=O)OCC1c1ccccc1` (stereo not drawn) [Example 26, (E)-3-(3-(2-trifluoromethylphenyl)acryloyl)-4-phenyloxazolidin-2-one]: the change in vivo at 20 mg/kg in data set [1] (setting [4]) is around 20%.

Regarding `O=C(/C=C/c1ccccc1C(F)(F)F)N1C(=O)OC[C@@H]1c1ccccc1` [Example 27, (S, E)-3-(3-(2-trifluoromethylphenyl)acryloyl)-4-phenyloxazolidin-2-one], the change in vivo at 20 mg/kg in data set [1] (setting [4]) was around 40%. The AUC(0-inf) came out at 805 ng·h/mL in data set [2] (iv-5 mg/kg) and 650 ng·h/mL in data set [2] (po-20 mg/kg). Besides, the AUC(0-t) in data set [2] (iv-5 mg/kg) came out at 790 ng·h/mL; in data set [2] (po-20 mg/kg) it was 465 ng·h/mL. Also, in data set [2] (iv-5 mg/kg), the clearance came out at 104 mL/min/kg. Besides, the values for the half-life in data set [2] (iv-5 mg/kg) and in data set [2] (po-20 mg/kg) were 2.08 h and 4.01 h, respectively. Besides, the figures for the MRT inf in data set [2] (iv-5 mg/kg) and in data set [2] (po-20 mg/kg) were 1.04 h and 6.12 h, respectively. Moreover, the Cmax in data set [2] (po-20 mg/kg) is 104 ng/mL. The Tmax in data set [2] (po-20 mg/kg) was 1 h. Also, the bioavailability in data set [2] (po-20 mg/kg vs iv-5 mg/kg) came to 14.7%. In addition, the concentration at 15 min worked out at 50.9 ng/g in data set [3] (ICR (CD-1), mouse, brain, po, 20 mg/kg, PO 20 mg/kg, 15 min, mean, read-out: Brain); 70.4 ng/mL in data set [3] (ICR (CD-1), mouse, heart plasma, po, 20 mg/kg, PO 20 mg/kg, 15 min, mean, read-out: Heart Plasma); 3.8 ng/mL in data set [3] (ICR (CD-1), mouse, po, 20 mg/kg, PO 20 mg/kg, 15 min, mean, read-out: CSF); 320 ng/mL in data set [3] (ICR (CD-1), mouse, portal vein plasma, po, 20 mg/kg, PO 20 mg/kg, 15 min, individual animals 13-15, read-out: Portal Vein Plasma); 371 ng/mL in data set [3] (ICR (CD-1), mouse, portal vein plasma, po, 20 mg/kg, PO 20 mg/kg, 15 min, mean, read-out: Portal Vein Plasma). Also, the concentration at 30 min in data set [3] (ICR (CD-1), mouse, brain, po, 20 mg/kg, PO 20 mg/kg, 30 min, mean, read-out: Brain) was 43.7 ng/g; in data set [3] (ICR (CD-1), mouse, heart plasma, po, 20 mg/kg, PO 20 mg/kg, 30 min, mean, read-out: Heart Plasma), 61.9 ng/mL; in data set [3] (ICR (CD-1), mouse, po, 20 mg/kg, PO 20 mg/kg, 30 min, mean, read-out: CSF) it was 3.2 ng/mL; in data set [3] (ICR (CD-1), mouse, portal vein plasma, po, 20 mg/kg, PO 20 mg/kg, 30 min, mean, read-out: Portal Vein Plasma), 373 ng/mL. Besides, the Kp at 15 min is 0.7 in data set [3] (ICR (CD-1), mouse, brain/heart plasma, po, 20 mg/kg, PO 20 mg/kg, 15 min, individual animals 13-15, read-out: Brain/H. Plasma); 0.7 in data set [3] (ICR (CD-1), mouse, brain/heart plasma, po, 20 mg/kg, PO 20 mg/kg, 15 min, mean, read-out: Brain/H. Plasma); around 0.7 in data set [3] (ICR (CD-1), mouse, brain/plasma, po, 20 mg/kg, after oral administration in mice, read-out: B/P (brain tissue drug distribution)). The Kp at 30 min in data set [3] (ICR (CD-1), mouse, brain/heart plasma, po, 20 mg/kg, PO 20 mg/kg, 30 min, mean, read-out: Brain/H. Plasma) was found to be 0.7. Further, the Brain in data set [3] (setting [5]) was 29.4 ng/g and 75.4 ng/g and 47.9 ng/g; in data set [3] (setting [6]) it was 19.4 ng/g and 38.8 ng/g and 44.3 ng/g. Moreover, the “Brain/H. Plasma” value is 0.65 and 0.91 in data set [3] (setting [5]); 0.56 and 1.37 and 0.49 in data set [3] (setting [6]). Besides, the CSF is 1.63 ng/mL and 8.37 ng/mL and 1.40 ng/mL in data set [3] (setting [5]); 0.670 ng/mL and 0.770 ng/mL and 5.94 ng/mL in data set [3] (setting [6]). Also, the “Heart Plasma” value is 41.9 ng/mL and 117 ng/mL and 52.7 ng/mL in data set [3] (setting [5]); 34.2 ng/mL and 28.2 ng/mL and 89.5 ng/mL in data set [3] (setting [6]). For the same compound, the “Portal Vein Plasma” value is 375 ng/mL and 418 ng/mL in data set [3] (setting [5]); 252 ng/mL and 171 ng/mL and 704 ng/mL in data set [3] (setting [6]).

In the case of `O=C(/C=C/c1ccccc1C(F)(F)F)N1C(=O)OC[C@H]1c1ccccc1` [Example 28, (R, E)-3-(3-(2-trifluoromethylphenyl)acryloyl)-4-phenyloxazolidin-2-one], the change in vivo at 20 mg/kg in data set [1] (setting [4]) was around 20%.

For the compound `O=C(/C=C/c1cccc(OC(F)(F)F)c1)N1C(=O)OC[C@@H]1c1ccccc1` [Example 29, (S, E)-4-phenyl-3-(3-(3-(trifluoromethoxy)phenyl)acryloyl) oxazolidin-2-one], the change in vivo at 20 mg/kg in data set [1] (setting [4]) is around 20%.

In the case of `O=C(/C=C/c1ccccc1OC(F)(F)F)N1C(=O)OC[C@@H]1c1ccccc1` [Example 30, (S, E)-4-phenyl-3-(3-(2-(trifluoromethoxy)phenyl)acryloyl) oxazolidin-2-one], in data set [1] (setting [4]), the change in vivo at 20 mg/kg was around 10%.

Turning to `O=C(/C=C/c1cccc(-c2ccccc2)c1)N1C(=O)OC[C@@H]1c1ccccc1` [Example 35, (S, E)-3-(3-([1,1′-biphenyl]-3-yl)acryloyl)-4-phenyloxazolidin-2-one], the change in vivo at 20 mg/kg in data set [1] (setting [4]) was around 20%.

For the compound `O=C(/C=C/c1ccc(F)cc1C(F)(F)F)N1C(=O)OC[C@@H]1c1ccccc1` [Example 43, (S, E)-3-(3-(4-fluoro-2-(trifluoromethyl)phenyl)acryloyl)-4-phenyloxazolidin-2-one], the change in vivo at 20 mg/kg in data set [1] (setting [4]) is around 20%.

Consider `O=C(/C=C/c1ccccc1C(F)(F)F)N1C(=O)OCC1Cc1ccccc1` (stereo not drawn) [Example 57, (E)-4-benzyl-3-(3-(2-trifluoromethylphenyl)acryloyl)oxazolidin-2-one], for which the change in vivo at 20 mg/kg in data set [1] (setting [4]) was around 30%.

With `O=C(/C=C/c1ccccc1C(F)(F)F)N1C(=O)OC[C@@H]1Cc1ccccc1` [Example 58, (S, E)-4-benzyl-3-(3-(2-trifluoromethylphenyl)acryloyl)oxazolidin-2-one], in data set [1] (setting [4]), the change in vivo at 20 mg/kg was around 20%.

As for `O=C(/C=C/c1ccccc1C(F)(F)F)N1C(=O)OC[C@H]1Cc1ccccc1` [Example 59, (R, E)-4-benzyl-3-(3-(2-trifluoromethylphenyl)acryloyl)oxazolidin-2-one], the change in vivo at 20 mg/kg in data set [1] (setting [4]) is around 10%.

For `[2H]C1([2H])OC(=O)N(C(=O)/C=C/c2ccccc2C(F)(F)F)[C@H]1c1ccccc1` [Example 83, (S, E)-4-phenyl-3-(3-(2-trifluoromethylphenyl)acryloyl)oxazolidin-2-one-5,5-d2], the change in vivo at 20 mg/kg in data set [1] (setting [4]) is 50 to 60%. In data set [2] (iv-5 mg/kg), this compound gave an AUC(0-inf) of 2200 ng·h/mL, an AUC(0-t) of 2170 ng·h/mL, a clearance of 37.8 mL/min/kg and a half-life of 1.56 h. Also, the MRT inf in data set [2] (iv-5 mg/kg) amounted to 1.21 h. Moreover, in data set [2] (po-10 mg/kg), the AUC(0-inf) amounted to 767 ng·h/mL, the AUC(0-t) was 757 ng·h/mL, the peak level (Cmax) was 116 ng/mL and the Tmax came out at 1 h. Also, in data set [2] (po-10 mg/kg), the half-life was 4.08 h and the MRT inf stood at 5.61 h. Further, the bioavailability in data set [2] (po-10 mg/kg vs iv-5 mg/kg) was 17.4%.

`[2H]C1([2H])OC(=O)N(C(=O)/C=C/c2ccccc2OC(F)(F)F)[C@H]1c1ccccc1` [Example 84, (S, E)-4-phenyl-3-(3-(2-trifluoromethoxyphenyl)acryloyl) oxazolidin-2-one-5,5-d2]: the change in vivo at 20 mg/kg in data set [1] (setting [4]) is around 40%.

In the case of `[2H]C1([2H])OC(=O)N(C(=O)/C=C/c2cccc(-c3ccccc3)c2)[C@H]1c1ccccc1` [Example 86, (S, E)-3-(3-([1,1′-biphenyl]-3-yl)acryloyl)-4-phenyloxazolidin-2-one-5,5-d2], the change in vivo at 20 mg/kg in data set [1] (setting [4]) is around 30%.

For the compound `[2H]C1([2H])OC(=O)N(C(=O)/C=C/c2ccccc2C(F)(F)F)C1Cc1ccccc1` (stereo not drawn) [Example 104, (E)-4-benzyl-3-(3-(2-trifluoromethylphenyl)acryloyl)oxazolidin-2-one-5,5-d2], in data set [1] (setting [4]), the change in vivo at 20 mg/kg is around 40%.
